From patent publication US20230125667A1, “NOVEL TDZD ANALOGS AS AGENTS THAT DELAY, PREVENT, OR REVERSE AGE-ASSOCIATED DISEASES AND AS ANTI-CANCER AND ANTILEUKEMIC AGENTS” (United States Government as represented by the Department …, priority 2020, published 2023)
Like-named read-outs stand apart in the source and are kept apart here.

Experiments:
SH-SY5Y-APPSw cells = assay: Thioflavin-T staining of amyloid-like aggregates in SH-SY5Y-APPSw cells; type: cell-based, human; settings: neuronal cells (FIG. 9)
Method: Several TDZD-conjugated drugs (putative GSK-3 inhibitors) were evaluated for their ability to reduce accumulation of protein aggregates, and for protection against aggregation-associated end-points in the following model systems: (i.) SH-SY5Y-APPSw, a neuroblastoma cell line expressing the Swedish mutation of Amyloid Precursor Protein (APPSw), and thus predisposed to form β-amyloid deposits; (ii.) C. elegans strain CL4176, a model of Alzheimer-like amyloidopathy that can be induced to express human Aβ1-42 in muscle, or may express it at a lower level without induction; (iii.) C. elegans strain AM141, a model of Huntington-like polyglutamine aggregation that constitutively expresses Q40::YFP (a tract of 40 glutamines fused in-frame to yellow fluorescent protein) in muscle cells and forms aggregates progressively with adult aging. The TDZD analog PNR-962 (a putative GSK-3 inhibitor) and other related compounds (not shown) were protective in all aggregation assays.
First, the effects of TDZD analogues were tested on the human neuroblastoma cell line SH-SY5Y-APPSw, a model of Alzheimer-like amyloid aggregation expressing the “Sw” mutant form of Amyloid Precursor Protein, APP. These drugs all produced significant reductions in amyloid-like aggregates, by 30-50% as quantified by thioflavin-T staining intensity (data for PNR-962 are shown in FIG. 4). Modified TDZD-8 analogues PNR-962 and BSK-179 are more anti-aggregative than TDZD-8, lowering total amyloid-staining intensity by a further 14% (data not shown).
Following previously described experimental procedures (Liu, et al. (2005). S100B-induced microglial and neuronal IL-1 expression is mediated by cell type-specific transcription factors. Journal of Neurochemistry. 92(3): 546-553), SH-SY5Y-APPSw neuronal cells expressing an aggregation-prone double mutant of amyloid precursor protein (APPSw) were cultured in DMEM plus 10% (v/v) fetal bovine serum (FBS) at 37° C. Cells were suspended in trypsin/EDTA and rinsed in PBS prior to re-plating or harvesting. […] Human neuroblastoma cells were treated with PNR962, either simultaneous with sAPPα or beginning 1 h prior to sAPPα addition (pre-treatment) in order to ascertain the protective benefits of PNR962 on protein aggregation in human neuroblastoma cell lines. A similar experimental procedure was followed to examine the effect of treatment with these analogs on non-neuronal human cells, exposing human embryonic kidney cells (HEK) that express tau-like aggregates (found in AD-associated diseases) to 0.001, 0.01, and 1-μM doses of TDZD-8 and its analogues.
To observe the protective effects of the novel TDZD analogs on protein aggregation in SY5Y-APPSw cells, using DMEM medium containing 10% fetal calf serum in […], cells were cultured at 37′C for 26 hrs allowing cells to approximately double in number. After 48 h of cell incubation in the presence of specified concentrations of drug or vehicle, cells were fixed 15 min in formaldehyde (4% v/v), washed, and stained 20 min at ˜22° C. in a dark container with 0.1% w/v Thioflavin T mixed with DAPI (1 μg/ml; Life Technologies, Grand Island, N.Y., USA). […] The intensity of aggregate/thioflavin-T fluorescence per field was quantified via an Image J plug-in developed in-house, and normalized to the number of DAPI^+ nuclei counted per field, to obtain an average intensity of aggregates per cell for each treatment.

[1] = test system: MV4-11 cell line (myelomonocytic leukemia); settings: MV4-11 cells
SK-MEL-28 = assay: NCI-60 growth inhibition: SK-MEL-28 (Melanoma); type: cell-based, human; settings: Homo sapiens
MDA-MB-435 = assay: NCI-60 growth inhibition: MDA-MB-435 (Melanoma); type: cell-based, human; settings: Homo sapiens
SK-MEL-2 = assay: NCI-60 growth inhibition: SK-MEL-2 (Melanoma); type: cell-based, human; settings: Homo sapiens
SF-268 = assay: NCI-60 growth inhibition: SF-268 (CNS Cancer); type: cell-based, human; settings: Homo sapiens
UACC-62 = assay: NCI-60 growth inhibition: UACC-62 (Melanoma); type: cell-based, human; settings: Homo sapiens
RXF 393 = assay: NCI-60 growth inhibition: RXF 393 (Renal Cancer); type: cell-based, human; settings: Homo sapiens
OVCAR-4 = assay: NCI-60 growth inhibition: OVCAR-4 (Ovarian Cancer); type: cell-based, human; settings: Homo sapiens
DU-145 = assay: NCI-60 growth inhibition: DU-145 (Prostate Cancer); type: cell-based, human; settings: Homo sapiens
CCRF-CEM = assay: NCI-60 growth inhibition: CCRF-CEM (Leukemia); type: cell-based, human; settings: Homo sapiens
NCI-H522 = assay: NCI-60 growth inhibition: NCI-H522 (Non-Small-Cell Lung Cancer); settings: Homo sapiens, NCI-H522
MDA-MB-468 = assay: NCI-60 growth inhibition: MDA-MB-468 (Breast Cancer); type: cell-based, human; settings: Homo sapiens; MDA-MB-468 (Breast Cancer); read-out: GI50
CAKI-1 = assay: NCI-60 growth inhibition: CAKI-1 (Renal Cancer); type: cell-based, human; settings: Homo sapiens
T-47D = assay: NCI-60 growth inhibition: T-47D (Breast Cancer); type: cell-based, human; settings: Homo sapiens, T47D
MCF7 = assay: NCI-60 growth inhibition: MCF7 (Breast Cancer); type: cell-based, human; settings: Homo sapiens
UACC-257 = assay: NCI-60 growth inhibition: UACC-257 (Melanoma); type: cell-based, human; settings: Homo sapiens
PC-3 = assay: NCI-60 growth inhibition: PC-3 (Prostate Cancer); type: cell-based, human; settings: Homo sapiens
U251 = assay: NCI-60 growth inhibition: U251 (CNS Cancer); type: cell-based, human; settings: Homo sapiens, U-251
RPMI-8226 = assay: NCI-60 growth inhibition: RPMI-8226 (Leukemia); type: cell-based, human; settings: Homo sapiens
[2] = test system: human leukemia cell lines; assay: NCI-60 growth inhibition, leukemia cell lines
UO-31 = assay: NCI-60 growth inhibition: UO-31 (Renal Cancer); type: cell-based, human; settings: Homo sapiens
NCI-H460 = assay: NCI-60 growth inhibition: NCI-H460 (Non-Small-Cell Lung Cancer); type: cell-based, human; settings: Homo sapiens
OVCAR-8 = assay: NCI-60 growth inhibition: OVCAR-8 (Ovarian Cancer); type: cell-based, human; settings: Homo sapiens
M14 = assay: NCI-60 growth inhibition: M14 (Melanoma); type: cell-based, human; settings: Homo sapiens
A498 = assay: NCI-60 growth inhibition: A498 (Renal Cancer); type: cell-based, human; settings: Homo sapiens
SR = assay: NCI-60 growth inhibition: SR (Leukemia); type: cell-based, human; settings: Homo sapiens
EKVX = assay: NCI-60 growth inhibition: EKVX (Non-Small-Cell Lung Cancer); type: cell-based, human; settings: Homo sapiens
COLO 205 = assay: NCI-60 growth inhibition: COLO 205 (Colon Cancer); type: cell-based, human; settings: Homo sapiens
786-0 = assay: NCI-60 growth inhibition: 786-0 (Renal Cancer); type: cell-based, human; settings: Homo sapiens
OVCAR-5 = assay: NCI-60 growth inhibition: OVCAR-5 (Ovarian Cancer); type: cell-based, human; settings: Homo sapiens
SF-539 = assay: NCI-60 growth inhibition: SF-539 (CNS Cancer); type: cell-based, human; settings: Homo sapiens
NCI-H23 = assay: NCI-60 growth inhibition: NCI-H23 (Non-Small-Cell Lung Cancer); type: cell-based, human; settings: Homo sapiens
HCT-116 = assay: NCI-60 growth inhibition: HCT-116 (Colon Cancer); settings: Homo sapiens, HCT-116
SW-620 = assay: NCI-60 growth inhibition: SW-620 (Colon Cancer); type: cell-based, human; settings: Homo sapiens
BT-549 = assay: NCI-60 growth inhibition: BT-549 (Breast Cancer); type: cell-based, human; settings: Homo sapiens
HOP-92 = assay: NCI-60 growth inhibition: HOP-92 (Non-Small-Cell Lung Cancer); type: cell-based, human; settings: Homo sapiens
TK-10 = assay: NCI-60 growth inhibition: TK-10 (Renal Cancer); type: cell-based, human; settings: Homo sapiens
MDA-MB-231/ATCC = assay: NCI-60 growth inhibition: MDA-MB-231/ATCC (Breast Cancer); type: cell-based, human; settings: Homo sapiens
LOX IMVI = assay: NCI-60 growth inhibition: LOX IMVI (Melanoma); type: cell-based, human; settings: Homo sapiens
HL-60(TB) = assay: NCI-60 growth inhibition: HL-60(TB) (Leukemia); type: cell-based, human; settings: Homo sapiens; HL-60(TB) (Leukemia); read-out: GI50
MALME-3M = assay: NCI-60 growth inhibition: MALME-3M (Melanoma); type: cell-based, human; settings: Homo sapiens
SK-MEL-5 = assay: NCI-60 growth inhibition: SK-MEL-5 (Melanoma); type: cell-based, human; settings: Homo sapiens
IGROV1 = assay: NCI-60 growth inhibition: IGROV1 (Ovarian Cancer); type: cell-based, human; settings: Homo sapiens, IGROV-1
SN12C = assay: NCI-60 growth inhibition: SN12C (Renal Cancer); type: cell-based, human; settings: Homo sapiens
OVCAR-3 = assay: NCI-60 growth inhibition: OVCAR-3 (Ovarian Cancer); type: cell-based, human; settings: Homo sapiens
HS 578T = assay: NCI-60 growth inhibition: HS 578T (Breast Cancer); type: cell-based, human; settings: Homo sapiens
HCT-15 = assay: NCI-60 growth inhibition: HCT-15 (Colon Cancer); type: cell-based, human; settings: Homo sapiens
HT29 = assay: NCI-60 growth inhibition: HT29 (Colon Cancer); type: cell-based, human; settings: Homo sapiens, HT-29
SNB-19 = assay: NCI-60 growth inhibition: SNB-19 (CNS Cancer); type: cell-based, human; settings: Homo sapiens
ACHN = assay: NCI-60 growth inhibition: ACHN (Renal Cancer); type: cell-based, human; settings: Homo sapiens
MOLT-4 = assay: NCI-60 growth inhibition: MOLT-4 (Leukemia); type: cell-based, human; settings: Homo sapiens
K-562 = assay: NCI-60 growth inhibition: K-562 (Leukemia); type: cell-based, human; settings: Homo sapiens, K562
[3] = Ibuprofen-TDZD analogs (Table 3)

## CC(C)Cc1ccc(C(C)C(=O)NCc2ccc(Cn3c(=O)sn(CCCl)c3=O)cc2)cc1 (stereo not drawn) [BSK-137]
SH-SY5Y-APPSw cells
  reduction of aggregate intensity (Thioflavin-T staining): 34%
[1]; [3]
  LD50, 7AAD (μM) 24 h: 3.39 µM
  LD50, Alamar blue (μM) 24 h: 7.00 µM
  LD50, YOPRO (μM) 24 h: 3.28 µM

## C=C1C(=O)O[C@H]2[C@H]1CC/C(COC(=O)NCc1ccc(Cn3c(=O)sn(CCCC)c3=O)cc1)=C\CC[C@@]1(C)O[C@@H]21 [BSK-230]
SK-MEL-28
  GI50: 1800 nM
MDA-MB-435
  GI50: 1650 nM
SK-MEL-2
  GI50: 4.53 µM
SF-268
  GI50: 4.28 µM
UACC-62
  GI50: 1620 nM
RXF 393
  GI50: 1570 nM
OVCAR-4
  GI50: 1520 nM
DU-145
  GI50: 1810 nM
CCRF-CEM
  GI50: 650 nM
NCI-H522
  GI50: 1190 nM
MDA-MB-468
  GI50: 1730 nM
CAKI-1
  GI50: 1640 nM
T-47D
  GI50: 2040 nM
MCF7
  GI50: 1870 nM
UACC-257
  GI50: 2030 nM
PC-3
  GI50: 1750 nM
U251
  GI50: 41.5 µM
RPMI-8226
  GI50: 1480 nM
[2]; Homo sapiens
  GI50: 280 to 900 nM
[2]; NCI panel
  potency against leukemia cell lines (GI50 <1.0): highly potent against 3 of the 6 leukemia cell lines
UO-31
  GI50: 1450 nM
NCI-H460
  GI50: 5.92 µM
OVCAR-8
  GI50: 3.64 µM
M14
  GI50: 1450 nM
A498
  GI50: 3.28 µM
SR
  GI50: 400 nM
EKVX
  GI50: 3.32 µM
COLO 205
  GI50: 2000 nM
786-0
  GI50: 2000 nM
OVCAR-5
  GI50: 1930 nM
SF-539
  GI50: 1680 nM
NCI-H23
  GI50: 4.19 µM
HCT-116
  GI50: 1360 nM
SW-620
  GI50: 1510 nM
BT-549
  GI50: 1560 nM
HOP-92
  GI50: 1290 nM
TK-10
  GI50: 1810 nM
MDA-MB-231/ATCC
  GI50: 1800 nM
LOX IMVI
  GI50: 1650 nM
[1]; MMB-TDZD analogs (Table 2)
  LD50, 7AAD (μM) 24 h: 0.01 µM
  LD50, Alamar blue (μM) 24 h: 0.30 µM
  LD50, YOPRO (μM) 24 h: 0.02 µM
[1]; values in text
  LD50: 20 nM
HL-60(TB)
  GI50: 1810 nM
MALME-3M
  GI50: 1600 nM
SK-MEL-5
  GI50: 3.18 µM
IGROV1
  GI50: 1830 nM
SN12C
  GI50: 1730 nM
OVCAR-3
  GI50: 1590 nM
HS 578T
  GI50: 3.24 µM
HCT-15
  GI50: 2020 nM
HT29
  GI50: 2080 nM
SNB-19
  GI50: 6.63 µM
ACHN
  GI50: 1670 nM
MOLT-4
  GI50: 1550 nM
K-562
  GI50: 890 nM
